Holding throughout (assay): Transactivation test (apparent Kd by Schild regression versus reference antagonist), luciferase reporter in HeLa cells
What all share (assay type): cell-based
(In general: In a reporter assay the amount or activity of a reporter protein is the signal.)

One experiment concerns the target T1, RAR gamma (Homo sapiens, UniProt P13631).
T1 sequence (P13631 185-454 limits assumed): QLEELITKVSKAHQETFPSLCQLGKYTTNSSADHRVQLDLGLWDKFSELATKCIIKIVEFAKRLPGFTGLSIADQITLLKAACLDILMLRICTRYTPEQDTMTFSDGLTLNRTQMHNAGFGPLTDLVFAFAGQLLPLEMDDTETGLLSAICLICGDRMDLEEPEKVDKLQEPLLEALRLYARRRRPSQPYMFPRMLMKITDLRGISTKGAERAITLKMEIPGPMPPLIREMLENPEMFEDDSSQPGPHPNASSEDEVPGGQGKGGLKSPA
Particulars: HeLa stable transfectants ERE-βGlob-Luc-SV-Neo and RAR gamma ER-DBD-puro, 18 hours incubation, read-out: RAR gamma Kdapp. The procedure:
(§1) Activation of receptors by an agonist (activator) in HeLa cells leads to the expression of a reporter gene, luciferase, which generates light in the presence of a substrate. Therefore the activation of receptors can be measured by quantifying the luminescence produced after incubation of the cells in the presence of a reference antagonist. The activator products displace the antagonist from its site, thus permitting the receptor to be activated. The activity is measured by quantifying the increase in light produced. This measurement determines the activating activity of the useful compound in the invention.
(§2) In this study, a constant is determined that represents the affinity of the molecule for the receptor. This value can fluctuate according to the basal activity and expression of the receptor; it is designated apparent Kd (KdApp).
(§3) To determine this constant, cross curves are created of the product to be tested (4′-(3-hydroxy-propyl)-3′-(5,5,8,8-tetramethyl-5,6,7,8-tetrahydro-naphthalen-2-yl)-biphenyl-4-carboxylic acid and 4′-(2,3-dihydroxy-propyl)-3′-(5,5,8,8-tetramethyl-5,6,7,8-tetrahydro-naphtalen-2-yl)-biphenyl-4-carboxylic) acid versus a reference antagonist also called reference ligand, 4-(5,5-dimethyl-8-p-tolyl-5,6-dihydro-naphthalen-2-ylethynyl)-benzoic acid. The product to be tested is used at 10 concentrations and the reference antagonist at 7 concentrations. In each well (of a 96-well plate), the cells are in contact with one concentration of the product to be tested and one concentration of the reference antagonist.
(§4) Full agonist controls, also called 100% controls, (4-[2-(5,5,8,8 tetramethyl-5,6,7,8 tetrahydronaphthalene-2-yl)propenyl]-benzoic acid) and inverse agonist controls, also called 0% controls, (4-{(E)-3-[4-(4-tert-butyl-phenyl)-5,5,8,8-tetramethyl-5,6,7,8-tetrahydro-naphthalen-2-yl]-3-oxo-propenyl}-benzoic acid) are also measured.
(§5) These cross curves allow determining the AC50 (concentration at which 50% activation of the receptor is observed) of the reference ligand at different concentrations of the product to be tested. These AC50s are used to calculate the Schild regression by plotting a line conforming to the Schild equation (“Quantitation in receptor pharmacology” Terry P. Kenakin, Receptors and Channels, 2001, 7, 371-385).
(§6) In the case of an agonist, the AC50 is calculated by plotting the curve of the product at the concentration of the reference ligand giving 80% activation. The percentage of activation that corresponds to the maximum level of activity obtained is also measured.
(§7) The HeLa cell lines used are stable transfectants containing the plasmids ERE-βGlob-Luc-SV-Neo (reporter gene) and RAR (α, β, γ) ER-DBD-puro. These cells are inoculated onto 96-well plates in an amount of 10,000 cells per well in 100 μl DMEM medium with no phenol red and supplemented with 10% delipidated fetal bovine serum. The plates are then incubated at 37° C., 7% CO2 for 4 hours.
(§8) The different dilutions of the product to be tested, the reference ligand (4-(5,5-dimethyl-8-p-tolyl-5,6-dihydro-naphthalen-2-ylethynyl)-benzoic acid), the 100% control (100 nM 4-[2-(5,5,8,8 tetramethyl-5,6,7,8 tetrahydronaphthalene-2-yl)propenyl]-benzoic acid) and the 0% control (500 nM 4-{(E)-3-[4-(4-tert-butyl-phenyl)-5,5,8,8-tetramethyl-5,6,7,8-tetrahydro-naphthalen-2-yl]-3-oxo-propenyl}-benzoic acid) are added in an amount of 5 μl per well. The plates are then incubated 18 hours at 37° C., 7% CO2.
(§9) The culture medium is removed by turning over and 100 μl of a 1:1 PBS (phosphate buffer solution)/luciferin mixture is added to each well. After 5 minutes, the plates are read by the luminescence reader.

Another experiment concerns the target T2, RAR alpha (Homo sapiens, UniProt P10276).
T2 sequence (P10276 183-417 limits assumed): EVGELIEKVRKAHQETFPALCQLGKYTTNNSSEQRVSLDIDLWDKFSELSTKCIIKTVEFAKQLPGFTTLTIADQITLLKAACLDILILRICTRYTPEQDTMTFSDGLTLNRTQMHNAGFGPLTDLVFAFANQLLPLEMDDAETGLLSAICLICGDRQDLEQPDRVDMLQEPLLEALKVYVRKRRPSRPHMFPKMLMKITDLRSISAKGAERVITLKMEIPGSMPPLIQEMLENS
Particulars: HeLa stable transfectants ERE-βGlob-Luc-SV-Neo and RAR alpha ER-DBD-puro, 18 hours incubation, read-out: RAR alpha Kdapp. The method, then:
as §1, §2, §3, §4, §5, §6, §7, §8, §9

For another experiment, the target named is T3, RAR beta (Homo sapiens, UniProt P10826).
T3 sequence (P10826 183-417 limits assumed): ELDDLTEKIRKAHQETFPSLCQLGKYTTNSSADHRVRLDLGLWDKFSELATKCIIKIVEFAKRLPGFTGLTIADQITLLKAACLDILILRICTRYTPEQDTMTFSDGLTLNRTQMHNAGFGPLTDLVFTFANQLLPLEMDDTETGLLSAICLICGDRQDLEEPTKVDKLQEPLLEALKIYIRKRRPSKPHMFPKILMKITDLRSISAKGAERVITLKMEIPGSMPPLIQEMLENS
The note with it: HeLa stable transfectants ERE-βGlob-Luc-SV-Neo and RAR beta ER-DBD-puro, 18 hours incubation, read-out: RAR beta Kdapp. The procedure:
as §1, §2, §3, §4, §5, §6, §7, §8, §9

2 compounds from patent US10377694B2, “Bi-aromatic propynyl compounds, pharmaceutical and cosmetic compositions containing them and uses thereof” (GALDERMA RESEARCH & DEVELOPMENT, priority 2016, dated 2019) can be followed below.

`CC1(C)CCC(C)(C)c2c(O)cc(C#Cc3ccc(C(=O)O)c(O)c3)cc21` [Compound 1]: the Kd on RAR gamma is 4 nM; at RAR alpha, 120 nM; on RAR beta, 4 nM.
Regarding `CC1(C)CCC(C)(C)c2c(OCC3CC3)cc(C#Cc3ccc(C(=O)O)cn3)cc21` [Compound 2], the Kd at RAR gamma stood at 4 nM; at RAR alpha, 30 nM; at RAR beta, 2 nM.
